Experimental data published in US20190269705A1, “METHODS AND MATERIALS FOR TREATING GRAFT VERSUS HOST DISEASE” (Regents of the University of Minnesota, priority 2017, published 2019).
Entries after “also recorded” stand apart in the source; their conditions may differ.

Experiments:
Th1 cells = assay: RNA-Seq and gene set enrichment analysis, Th1; assay type: cell-based, mouse
Description: ATAC-Seq: Crude nuclei pellets were isolated as described elsewhere (see, e.g., Buenrostro et al., 2013 Nat Meth. 10(12):1213-1218) with modifications. Briefly, naïve CD4 T cells were skewed to Th1 and Th17 subsets in vitro with vehicle or in the presence of 500 nM CB839. At Day 5, T cells were re-isolated for CD4+ cells using Miltenyi CD4+ negative selection kit (Cat #: 130-104-454). 1×10^5 cells were removed for nuclei extraction in ATAC-Seq lysing buffer. Cells were exposed to Tn5+ adaptor proteins from Nextera DNA for 30 min at 37° C. and immediately placed on ice. Transposed eluate was amplified via PCR using Nextera DNA preparation kit (Illumina, Cat #: FC-121-1030), NEBNext High-fidelity 2× PCR mix (New England Labs, Cat #: M0541), and multiplexed (Illumina, Cat #: FC-121-1011). Samples were purified using Zymo DNA cleanup kit (Cat #: D4011). QC of samples was run on bioanalyzer before being sent for sequencing. RNA-Seq: Th1 and Th17 cells skewed with or without CB839 were isolated as previously described and total RNA extracted (Qiagen RNEasy Mini kit, Cat #: 74104). RNA was sent to VANTAGE core at Vanderbilt University and sequenced on HiSeq 2500. n=3 for each sample was analyzed. Samples were analyzed using the R program DESeq2. GSEA was performed using MSigDB.
Th1 and Th17 cells were skewed with or without CB839 over 5 days and total RNA extracted for RNAseq (Cat #: 74104). RNA was sent to VANderbilt Technologies for Advanced GEnomics (VANTAGE) core at Vanderbilt University. Libraries were prepared using 50 ng of total RNA using the NEBNext Ultra RNA Library Kit for Illumina (Cat #E7530) and sequenced on HiSeq3000 at 75 bp paired-end. Each sample was analyzed in triplicate. Sequencing reads were aligned against the Mouse GENCODE genome, Version M14 (Jan. 2017 freeze, GRCm38, Ensembl 89) using the Spliced Transcripts Alignment to a Reference (STAR) software (ref: 26187010 and 23104886). Reads were preprocessed and index using SAMtools (ref: 19505943). Mapped reads were assigned to gene features and quantified using featureCounts (ref: 24227677). Normalization and differential expression was performed using DESeq2 (Love et al., 2014). Skewed lymphocytes with and without CB839 were compared in both Th1 and Th17 groups. […] The top 200 most differentially expressed genes were used for unsupervised hierarchical cluster analysis and visualized using heatmap representations.

CD19+ B cells = assay: In vivo CAR T cells treated ex vivo; design: species or system mouse; conditions: CAR-T cells treated with CB839 during in vitro transduction
Text: CAR T cells were produced as described elsewhere (see, e.g., Li et al., “Gammaretroviral Production and T Cell Transduction to Genetically Retarget Primary T Cells Against Cancer.” In: Lugli E, ed. T-Cell Differentiation: Methods and Protocols. New York, N.Y.: Springer New York; 2017:111-118). Briefly, spleen T cells were isolated from Thy1.1 B6 mice at day 0. Cells were then activated with mouse CD3/CD28 Dynabeads and 30 IU/ml recombinant human IL2. At day 1 and 2, cells were spin transduced twice with retrovirus carrying CARs. At day 3, cells were fed with fresh medium. At day 4, transduced T cells were harvested, beads removed, evaluated for viability, transduction efficiency, immune phenotype and ready for use. For CB839 treated CAR T cells, CB839 were added to the culture at day 1, 2 and 3 at 1 μM. For in vivo study, C57B6 mice (n=25) were i.p. injected with cyclophosphamide (CTX) at 300 mg/kg. Mice were i.v. injected with 3×10^5 CAR T cells one day after CTX injection. Peripheral blood (PB) samples were collected 1, 2, 4 and 6 weeks after CAR T injection, stained with B cell and T cell antibodies and subjected to flow cytometry. […]
CAR T cells were produced as previously described (Li et al., 2017). […] At day 4, transduced T cells were harvested, beads removed, evaluated for viability, transduction efficiency, immune phenotype and ready for use. […]

Treg cells = assay: CD4 T cells in Treg skewing conditions, flow cytometry; conditions: 5 days, CB839 vs vehicle
[1] = Th1 Cells: Decreased Pathways, HALLMARK_ALLOGRAFT_REJECTION
[2] = Th1 Cells: Decreased Pathways, HALLMARK_ANGIOGENESIS
[3] = Th1 Cells: Decreased Pathways, HALLMARK_APICAL_JUNCTION
[4] = Th1 Cells: Decreased Pathways, HALLMARK_APOPTOSIS
[5] = Th1 Cells: Decreased Pathways, HALLMARK_COMPLEMENT
[6] = Th1 Cells: Decreased Pathways, HALLMARK_EPITHELIAL_MESENCHYMAL_TRANSITION
[7] = Th1 Cells: Decreased Pathways, HALLMARK_ESTROGEN_RESPONSE_EARLY
[8] = Th1 Cells: Decreased Pathways, HALLMARK_INFLAMMATORY_RESPONSE
[9] = Th1 Cells: Decreased Pathways, HALLMARK_INTERFERON_GAMMA_RESPONSE
[10] = Th1 Cells: Decreased Pathways, HALLMARK_KRAS_SIGNALING_UP
[11] = Th1 Cells: Decreased Pathways, HALLMARK_UV_RESPONSE_DN
[12] = Th1 Cells: Increased Pathways, HALLMARK_DNA_REPAIR
[13] = Th1 Cells: Increased Pathways, HALLMARK_E2F_TARGETS
[14] = Th1 Cells: Increased Pathways, HALLMARK_ESTROGEN_RESPONSE_LATE
[15] = Th1 Cells: Increased Pathways, HALLMARK_G2M_CHECKPOINT
[16] = Th1 Cells: Increased Pathways, HALLMARK_GLYCOLYSIS
[17] = Th1 Cells: Increased Pathways, HALLMARK_IL2_STAT5_SIGNALING
[18] = Th1 Cells: Increased Pathways, HALLMARK_MITOTIC_SPINDLE
[19] = Th1 Cells: Increased Pathways, HALLMARK_MTORC1_SIGNALING
[20] = Th1 Cells: Increased Pathways, HALLMARK_MYC_TARGETS_V1
[21] = Th1 Cells: Increased Pathways, HALLMARK_P53_PATHWAY

For `O=C(Cc1cccc(OC(F)(F)F)c1)Nc1ccc(CCCCc2nnc(NC(=O)Cc3ccccn3)s2)nn1` [CB839], the “Pik3ip1 expression by RNA-Seq” value (Th1 cells; Th1) was “most strongly downregulated”, the “compensation by GLS2 at the RNA level” value (Th1 cells; Th1, CB839-treated) was “No compensation by GLS2 at the RNA level” and the “direction of the 200 genes with the most altered expression” value (Th1 cells; Th1, CB839 vs vehicle) was “the majority showed increased expression”. The “gene set enrichment: cell cycle, mTORC1, Myc, IL2 signaling pathways” value (Th1 cells; Th1, CB839 vs vehicle) was “upregulation of cell cycle, mTORC1, Myc, IL2 signaling, and glycolysis pathways; also recorded: upregulation of specific pathways including those related to cell cycle, mTORC1, Myc, and IL2 signaling”, the “# Genes in Overlap (k)” value (Th1 cells; [1]) was 17 and the k/K (Th1 cells; [1]) was 0.085. The “# Genes in Overlap (k)” value (Th1 cells; [2]) was 6, the k/K (Th1 cells; [2]) was 0.1667 and the “# Genes in Overlap (k)” value (Th1 cells; [3]) was 16. For the same compound, the k/K (Th1 cells; [3]) was 0.08, the “# Genes in Overlap (k)” value (Th1 cells; [4]) was 13 and the k/K (Th1 cells; [4]) was 0.0807. For the same compound, the “# Genes in Overlap (k)” value (Th1 cells; [5]) was 18, the k/K (Th1 cells; [5]) was 0.09 and the “# Genes in Overlap (k)” value (Th1 cells; [6]) was 13. The k/K (Th1 cells; [6]) was 0.065, the “# Genes in Overlap (k)” value (Th1 cells; [7]) was 13 and the k/K (Th1 cells; [7]) was 0.065. The “# Genes in Overlap (k)” value (Th1 cells; [8]) was 18, the k/K (Th1 cells; [8]) was 0.09 and the “# Genes in Overlap (k)” value (Th1 cells; [9]) was 14. For the same compound, the k/K (Th1 cells; [9]) was 0.07, the “# Genes in Overlap (k)” value (Th1 cells; [10]) was 20 and the k/K (Th1 cells; [10]) was 0.1. For the same compound, the “# Genes in Overlap (k)” value (Th1 cells; [11]) was 11, the k/K (Th1 cells; [11]) was 0.0764 and the “# Genes in Overlap (k)” value (Th1 cells; [12]) was 28. The k/K (Th1 cells; [12]) was 0.1867, the “# Genes in Overlap (k)” value (Th1 cells; [13]) was 135 and the k/K (Th1 cells; [13]) was 0.675. For the same compound, the “# Genes in Overlap (k)” value (Th1 cells; [14]) was 30, the k/K (Th1 cells; [14]) was 0.15 and the “# Genes in Overlap (k)” value (Th1 cells; [15]) was 101. The k/K (Th1 cells; [15]) was 0.505, the “# Genes in Overlap (k)” value (Th1 cells; [16]) was 34 and the k/K (Th1 cells; [16]) was 0.17. The “# Genes in Overlap (k)” value (Th1 cells; [17]) was 37, the k/K (Th1 cells; [17]) was 0.185 and the “# Genes in Overlap (k)” value (Th1 cells; [18]) was 56. The k/K (Th1 cells; [18]) was 0.28, the “# Genes in Overlap (k)” value (Th1 cells; [19]) was 47 and the k/K (Th1 cells; [19]) was 0.235. For the same compound, the “# Genes in Overlap (k)” value (Th1 cells; [20]) was 43, the k/K (Th1 cells; [20]) was 0.215 and the “# Genes in Overlap (k)” value (Th1 cells; [21]) was 30. The k/K (Th1 cells; [21]) was 0.15, the “CAR-T cell accumulation / persistence in vivo” value (CD19+ B cells) was “accumulated in vivo to a greater extent; also recorded: enhances T cell persistence” and the “elimination of CD19+ targets in vivo” value (CD19+ B cells) was “equivalently capable; also recorded: equally capable of eliminating CD19+ targets in vivo”. The Treg differentiation (Treg cells) was “unchanged”.
